# Laboratory results published in US20240148728A1, “NOVEL METHOD TO BLOCK IN[…] DEATH AND IL-1BETA SECRETION CAUSED BY […] UV I[…] GENETIC AND CHEMICAL INHIBITORS OF ZAKA AND THE NLRP1 INFLAMMASOME” (priority 2021, published 2024).
# Legend:
# Assay type in all cases: cell-based, human
# NLRP1^DR = assay: NLRP1 PYD-DR1 / NLRP1^DR phosphorylation (GFP fusion, immunoblot, PhosTag SDS-PAGE) in N-TERT cells
# Excerpt: (§1) The following antibodies were used in this study: cleaved PARP1 (Abclonal, #WH162766), Cleaved CASP3 (Abclonal, #WH154646), Full length GSDMD-FL (Abcam, #ab210070), IL1β p17 specific (CST, #83186S), CARD8 (Abcam, CARD8-NT: ab19485, CARD8-CT: ab241186), DPP9 (Abcam, ab226334), c-Myc (Santa Cruz Biotechnology, #sc-40), HA tag (Santa Cruz Biotechnology, #sc-805), GAPDH (Santa Cruz Biotechnology, #sc-47724), ASC (Adipogen, #AL-177), CASP1 (Santa Cruz Biotechnology, #sc-622), 11_1B (R&D systems, #AF-201), FLAG (SigmaAldrich, #F3165), NLRP1 (R&D systems, #AF6788), IL18 (Abcam ab207324), cleaved GSDMD-NT (Asp275) (Cell Signaling Technology, #36425), RPL31 (Abclonal, #WH162766), CASP7 (Abcam, ab255818), CASP8 (Abcam, ab32397), cleaved CASP3 (Cell Signaling Technology, #9664). All horseradish peroxidase (HRP)— conjugated secondary antibodies were purchased from Jackson Immunoresearch (goat anti-mouse IgG: 115-035-166; goat anti-rabbit IgG: 111-035-144; and donkey anti-goat IgG: 705-005-147). Blue-Native PAGE was carried out using the Native-PAGE system (ThermoFisher) with 10-20 μg of total lysate. For SDS-PAGE using whole cell lysates, cells were resuspended in tris-buffered saline 1% NP-40 with protease inhibitors (Thermo Scientific, #78430). Protein concentration was determined using the Bradford assay (Thermo Scientific, #23200) and […] of protein loaded, a part from cleaved GSDMD-NT visualisation where […] of protein was used. All primary antibodies were used at 250 ng/ml. Visualisation of ASC oligomerization was previously described (Robinson et al., 2020). For analysis of IL1β and IL-18 cleavage in the media by immunoblotting, samples were concentrated using filtered centrifugation (Merck, Amicon Ultra, #UFC5003BIK). Protein samples were run using immunoblotting, and then visualized using a ChemiDoc Imaging system (Bio-Rad). PhosTag SDS-PAGE was carried out using homemade 10% SDS-PAGE gel, with addition of Phos-tag Acrylamide (Wako Chemicals, AAL-107) to a final concentration of 30 μM and manganese chloride(II) (Sigma-Aldrich, #63535) to 60 μM.
# Cells were directly harvested using Laemmli buffer, lysed with an ultrasonicator, and loaded into the Phos-tag gel to run. Once the run was completed, the polyacrylamide gel was washed in transfer buffer with 10 mM EDTA twice, subsequently washed without EDTA twice, blotted onto 0.45 μm PVDF membranes (Bio-rad), blocked with 3% milk, and incubated with primary and corresponding secondary antibodies.
# [1] = system: immortalized keratinocytes (N-TERT); assay: Pyroptosis / apoptosis in N-TERT keratinocytes (morphology, ASC-GFP, PI, Annexin V, immunoblot); conditions: for morphological hallmarks of inflammasome activation and pyroptotic cell death: membrane ballooning, ASC-GFP specks, PI uptake
# Excerpt: as §1
# N-TERT-ASC-GFP cells were seeded at a cell density of 3000 cells/well of a 96 black well plate (PerkinElmer, CellCarrier-96 Ultra, #6055300). The next morning cells were treated with chemicals for 6 h or treated in the evening for 24 h before staining. 1 hour before observing the cells on the microscope the cells were stained with 1 μg/ml dilution of propidium iodide (PI, Abcam #ab14083), 10 ng/ml dilution of Hoechst 33342 (Life Technologies, #H21492) or stained with Annexin V Alexa Flour 647 (Life technologies, #A23204) according to the manufacturer's protocol. Stained cells were then imaged on a high content screening microscope (Perkin Elmer Operetta CLS imaging system). Images were then stored and analyzed using the Harmony software (Version 6). Fluorescent and brightfield images acquired on the Operetta high content screening microscope were further analyzed using a scoring system to categorize the percentages of live, apoptotic and pyroptotic cells. For 3 fields of view per treatment the number of live cells per field was counted from the merge of the brightfield and ASC-GFP channels. Only cells which contained ASC-GFP throughout the cytoplasm and nucleus were classed as “live”. The number of pyroptotic cells was calculated using the merge of the brightfield and ASC-GFP channels. Only the cells with GFP specks were classed as “pyroptotic”. The number of apoptotic cells was calculated using the merge of the brightfield, ASC-GFP and Annexin V channels. Cells that were stained positive for Annexin V but without a GFP speck were classified as “apoptotic”. Images of ASC-GFP specks were acquired in 3 random fields in 4′,6-diaminidino-2-phenylindole (DAPI, 358 nm/461) and GFP (469 nm/525 nm) channels using the EVOS microscope (FL Auto M5000, #AM F5000) according to the manufacturer's protocol. […]
# 293T-ASC-GFP-NLRP1 = conditions: for ASC-GFP speck formation, screen of cytotoxic chemicals: ANS 1 μM, LTM 1 μg/ml, STS 1 μM; for effect on ANS- and TNFα+DT-triggered NLRP1 activation: 293T-NLRP1-ASC-GFP reporter cells, BTZ 0.5 μM, MLN4924 0.25 μM
# NLRP1-NT = assay: NLRP1 cleavage / NLRP1-NT level by immunoblot
# Excerpt: as §1
# N-TERT cells [2] = assay: Secreted IL1β / inflammasome activation in N-TERT cells; conditions: for effect on ANS- and TNFα+DT-triggered NLRP1 activation: N-TERTs, BTZ 0.5 μM, MLN4924 0.25 μM
# Procedure: (§2) To measure secreted cytokine and chemokine levels a human IL1β enzyme linked immunosorbent assay (ELISA) kit (BD, #557953), human IL-18 ELISA kit (MBL, #7620) or an Immune Monitoring 65-Plex Human ProcartaPlex Panel (EPX650-10065-901) were used according to manufacturer's protocols. Further analysis of Luminex or ELISA profiling of samples was performed using heatmap and PCA analysis on Clustervis (biitdotcsdotutdotee/clustvis/) [Somani et al., Proceeding of SSIC (2019)].
# as §1
# N-TERT cells [3] = assay: UVB triggered cell death and IL-1beta release in N-TERT cells
# Procedure: For UVA and UVB irradiation experiments, cells were seeded 24 hours prior to irradiation, and washed once in phosphate buffered saline pH 7.4 before being exposed to indicated dose of irradiation using a BIO-SUN microprocessor controlled, cooled UV irradiation system (BIO-SUN, Vilber). After exposure, PBS was replaced by keratinocyte medium and cells were incubated for indicated time.
# as §2
smiles,measurement,setting,value
"CC1=C[C@H]2O[C@@H]3[C@H](O)C[C@](C)([C@@]2(CO)[C@H](O)C1=O)[C@]31CO1 [DON, deoxynivalenol]",NLRP1^DR hyperphosphorylation,"NLRP1^DR; NLRP1DR-GFP in N-TERT cells, PhosTag SDS-PAGE",also led to NLRP1^DR hyperphosphorylation
same,band shift (phosphorylation) of PYD-DR1-GFP,NLRP1^DR; NLRP1 KO N-TERT cells expressing GFP-tagged PYD-DR1,band shift in PYD-DR1-GFP
same,morphological hallmarks of inflammasome activation and pyroptotic cell death,[1],caused prominent inflammasome activation and pyroptosis
"C/C(=C\[C@H](C)C(=O)C[C@H](O)CC1CC(=O)NC(=O)C1)[C@@H]1OC(=O)/C=C/CC/C=C/C=C\[C@@H]1C [LTM, Lactimidomycin]",mode of cell death (apoptosis / pyroptosis),"[1]; Annexin V staining and PI inclusion, immunoblot markers",caused both apoptosis and pyroptosis
same,morphological hallmarks of inflammasome activation and pyroptotic cell death,[1],rapidly induced the morphological hallmarks of inflammasome activation and pyroptotic cell death
same,fraction of pyroptotic cells,"[1]; single cell level, compared with VbP",comparable to that induced by VbP
same,"ASC-GFP speck formation, screen of cytotoxic chemicals",293T-ASC-GFP-NLRP1,identified two hits
"NS(=O)(=O)OC[C@@H]1C[C@@H](n2ccc3c(N[C@H]4CCc5ccccc54)ncnc32)C[C@@H]1O [MLN4924, ((1S,2S,4R)-4-(4-(((S)-2,3-dihydro-1H-inden-1-yl)amino)-7H-pyrrolo[2,3-d]pyrimidin-7-yl)-2-hydroxycyclopentyl)methyl sulfamate]",effect on ribotoxin-triggered NLRP1-NT destabilization,NLRP1-NT,could be blocked
same,effect on ANS- and TNFα+DT-triggered NLRP1 activation,N-TERT cells [2],abrogated ANS- and TNFα+DT-triggered NLRP1 activation
same,effect on UVB-dependent NLRP1 activation,N-TERT cells [3],abrogated
same,effect on UVB triggered cell death (PI positive cells),N-TERT cells [3]; 18-hour incubation,blocks UVB triggered cell death and IL-1beta release
same,effect on UVB triggered IL-1beta release,N-TERT cells [3]; IL1β ELISA of cell media,blocks UVB triggered cell death and IL-1beta release
same,effect on ANS- and TNFα+DT-triggered NLRP1 activation,293T-ASC-GFP-NLRP1,abrogated ANS- and TNFα+DT-triggered NLRP1 activation
"Cc1cn(-c2cc(NC(=O)c3ccc(C)c(Nc4nccc(-c5cccnc5)n4)c3)cc(C(F)(F)F)c2)cn1 [Nilotinib, 4-methyl-N-[3-(4-methylimidazol-1-yl)-5-(trifluoromethyl)phenyl]-3-[(4-pyridin-3-ylpyrimidin-2-yl)amino]benzamide]",NLRP1 PYD-DR1 phosphorylation under inhibitor,NLRP1^DR,loss of NLRP1 PYD-DR1 phosphorylation
same,effect on VbP-triggered pyroptosis,N-TERT cells [2],had no discernible effect on VbP-triggered pyroptosis
same,"effect on ANS- and DT-dependent inflammasome activation (ASC oligomerization, IL1β secretion)",N-TERT cells [2]; wild-type N-TERT cells,abrogated all measures of ANS- and DT-dependent inflammasome activation
same,effect on ANS-dependent ASC-GFP speck formation,293T-ASC-GFP-NLRP1; Nilotinib 0.1 μM,abrogated all measures of ANS- and DT-dependent inflammasome activation
"CN[C@@H]1C[C@H]2O[C@@](C)([C@@H]1OC)n1c3ccccc3c3c4c(c5c6ccccc6n2c5c31)C(=O)NC4 [STS, Staurosporine]","ASC-GFP speck formation, screen of cytotoxic chemicals",293T-ASC-GFP-NLRP1,failed to induce ASC-GFP specks
CCCn1/c(=N/C(=O)c2cccc(C(N)=O)c2)[nH]c2ccccc21 [TAKinib],effect on ANS-induced IL1β secretion,N-TERT cells [2]; selective TAK1 inhibitor,does not have an effect on ANS-induced IL1β secretion
"CN(CC[C@H](N)CC(=O)N[C@H]1C=C[C@H](n2ccc(N)nc2=O)O[C@@H]1C(=O)O)C(=N)N [blasticidin, Blasticidin]",morphological hallmarks of inflammasome activation and pyroptotic cell death,[1],"none of the inhibitors that block the ribosome at the pre-elongation stages, including harringtonin, blasticidin and G418 caused any pyroptosis"
"CC(C)C[C@H](NC(=O)[C@H](Cc1ccccc1)NC(=O)c1cnccn1)B(O)O [bortezomib, [(1R)-3-methyl-1-[[(2S)-3-phenyl-2-(pyrazine-2-carbonylamino)propanoyl]amino]butyl]boronic acid]",effect on ribotoxin-triggered NLRP1-NT destabilization,NLRP1-NT,could be blocked
same,effect on ANS- and TNFα+DT-triggered NLRP1 activation,N-TERT cells [2],abrogated ANS- and TNFα+DT-triggered NLRP1 activation
same,effect on ANS- and TNFα+DT-triggered NLRP1 activation,293T-ASC-GFP-NLRP1,abrogated ANS- and TNFα+DT-triggered NLRP1 activation
CC[C@H]1CN2CCc3cc(OC)c(OC)cc3[C@@H]2C[C@@H]1C[C@H]1NCCc2cc(OC)c(OC)cc21 [emetine],effect on ANS-induced IL1β secretion,N-TERT cells [2]; 150 μM emetine,completely abrogated
"COC(=O)C[C@](O)(CCC(C)(C)O)C(=O)O[C@@H]1C(OC)=C[C@]23CCCN2CCc2cc4c(cc2[C@H]13)OCO4 [harringtonin, Harringtonine]",morphological hallmarks of inflammasome activation and pyroptotic cell death,[1],"none of the inhibitors that block the ribosome at the pre-elongation stages, including harringtonin, blasticidin and G418 caused any pyroptosis"
